{"source": "patent US10562869B2", "about": "“Oxadiazole compounds” (REMYND NV, priority 2014, dated 2020)", "data": [{"system": "M17_3SYN cells", "experiment": "Paraquat-induced cytotoxicity (LDH) in α-synuclein over-expressing M17_3SYN neuroblastoma cells", "assay_type": "cell-based, human", "conditions": "Homo sapiens, Neuroblastoma cell, 48 h, toxicity inhibition (LDH) in M17_3SYN cells challenged with 6 mM paraquat, 2 days; read-out: SYN EC50", "description": "(§1) A α-synuclein expression plasmid was constructed by subcloning the NcoI/XhoI fragment from 212T-SYN(WT) (Griffioen et al., Biochem Biophys Acta (2006) 1762(3):312-318) containing the cDNA of human wild type α-synuclein correspondingly into a standard mammalian expression vector pcDNA3.1 resulting in plasmid pcDNA3.1-SYNwt. Plasmids pcDNA3.1 and pcDNA3.1-SYNwt were transfected into human neuroblastoma cells (BE-M17; ATCC No. CRL-2267™) using lipofectamine reagent and subsequently, independent clonal cell lines with the plasmids stably integrated into the genome were selected by antibiotic resistance selection (Geneticin (G418)), resulting in cell lines M17.pcDNA3 and M17_3SYN. Overexpression of α-synuclein in the M17_3SYN cell line was confirmed by Western blot analysis.\n(§2) Due to the high levels of α-synuclein, M17_3SYN cells were sensitive to paraquat, a well-known risk factor Parkinson's disease and of synuclein-dependent neuronal degeneration. Cytotoxicity of cells was measured by quantification of lactate dehydrogenase (LDH) levels. In dead cells, LDH leaked out of the cells into the medium due to a loss of plasma-membrane integrity.\n(§3) […], primary pre-cultures of M17.pcDNA3 (as possible control) and M17_3SYN cells were prepared, starting from a stock culture, at a density of 20.000-40.000 cells/cm2 in culture medium (Opti-MEM® Reduced Serum Medium with Phenol Red (Invitrogen, Cat. 31985-047) supplemented with 10% FCS, 1 mM sodium pyruvate, 1×NEAA, 500 μg/ml G418 and 0.5×antibiotic/antimycotic (ABAM)). 3 days later these primary pre-cultures were used as a starting point to make secondary pre-cultures at a density of 50.000-100.000 cells/cm^2. At the day of the experiment these secondary precultures were diluted to ˜0.5·10^6 cells/ml in detection medium (Opti-MEM® Reduced-Serum Medium without Phenol Red (Invitrogen, Cat. 11085-021) supplemented with 10% FCS, 1 mM sodium pyruvate, 1×NEAA, 500 μg/ml G418 and 0.5×ABAM) and 60 μL of this suspension was dispensed per well into a 96-well microtiter plate. After 3 hours of incubation at 37° C./5% CO2 an equal volume of detection medium containing a final concentration of 6 mM Paraquat was added and subsequently incubated for 2 days at 37° C./5% CO2. Then LDH activity was determined using the Promega Cytotox 96 Non-Radioactive cytotoxicity assay (Promega, Cat. G1780), according to the manufacturer's instructions. Cytotoxicity was defined as the ratio of LDH relative to the total LDH in the cells and supernatant.\n(§4) The assay described above using the M17_3SYN cell line allowed screening compounds for their ability to decrease cytotoxicity in PQ-challenged cells. Compounds of the invention were tested for their ability to decrease toxicity at different concentrations, ranging from low non-effective concentrations to high effective concentrations. Afterwards, a dose-dependent inhibition curve was used to calculate the EC50. A compound was considered to be active in this test when it inhibited toxicity by more than 20% relative to untreated M17_3SYN cells at a concentration of 10 μM or lower.", "units": {"EC50": "nM"}, "values": [{"smiles": "O=S(=O)(c1ccc(OC(F)F)cc1)N1CCN(c2nc(Cc3ccc(F)c(F)c3)no2)CC1", "note": "[Cmpd101, 1-[3-(3,4-Difluoro-benzyl)-[1,2,4]oxadiazol-5-yl]-4-(4-difluoromethoxy-benzenesulfonyl)-piperazine]", "EC50": 50}, {"smiles": "COc1ccc(S(=O)(=O)N2CCN(c3nc(Cc4ccc(F)c(F)c4)no3)CC2)cc1", "note": "[Cmpd099, 1-[3-(3,4-Difluoro-benzyl)-[1,2,4]oxadiazol-5-yl]-4-(4-methoxy-benzenesulfonyl)-piperazine]", "EC50": 16}, {"smiles": "O=S(=O)(c1ccc(OC(F)F)cc1)N1CCN(c2nc(C(F)(F)c3ccc(Cl)cc3)no2)CC1", "note": "[Cmpd144, 1-{3-[(4-Chloro-phenyl)-difluoro-methyl]-[1,2,4]oxadiazol-5-yl}-4-(4-difluoromethoxy-benzenesulfonyl)-piperazine]", "EC50": 145}, {"smiles": "COc1ccc(S(=O)(=O)N2CCN(c3nc(C4CCCCC4)no3)CC2)cc1", "note": "[Cmpd210, 3-Cyclohexyl-5-(4-((4-methoxyphenyl)sulfonyl)piperazin-1-yl)-1,2,4-oxadiazole]", "EC50": 327}, {"smiles": "O=S(=O)(c1ccc(OC(F)F)cc1)N1CCN(c2nc(Cc3ccccc3)no2)CC1", "note": "[Cmpd039, 1-(3-Benzyl-[1,2,4]oxadiazol-5-yl)-4-(4-difluoromethoxy-benzenesulfonyl)-piperazine]", "EC50": 11}, {"smiles": "COc1ccc(S(=O)(=O)N2CCN(c3nc(COc4cccc(Cl)c4)no3)CC2)cc1", "note": "[Cmpd201, 3-((3-Chlorophenoxy)methyl)-5-(4-((4-methoxyphenyl)sulfonyl)piperazin-1-yl)-1,2,4-oxadiazole]", "EC50": 11}, {"smiles": "COc1ccc(S(=O)(=O)N2CCN(c3nc(C(C)(C)C)no3)CC2)cc1", "note": "[Cmpd209, 3-(Tert-butyl)-5-(4-((4-methoxyphenyl)sulfonyl)piperazin-1-yl)-1,2,4-oxadiazole]", "EC50": 296}, {"smiles": "O=S(=O)(c1ccc(OC(F)F)cc1)N1CCN(c2nc(C(F)(F)c3ccccc3)no2)CC1", "note": "[Cmpd158, 1-(4-Difluoromethoxy-benzenesulfonyl)-4-[3-(difluoro-phenyl-methyl)-[1,2,4]oxadiazol-5-yl]-piperazine]", "EC50": 31}, {"smiles": "COc1ccc(S(=O)(=O)N2CCN(c3nc(Cc4ccc(Cl)cc4)no3)CC2)cc1", "note": "[Cmpd052, 1-[3-(4-Chloro-benzyl)-[1,2,4]oxadiazol-5-yl]-4-(4-methoxy-benzenesulfonyl)-piperazine]", "EC50": 24}, {"smiles": "CSc1ccc(S(=O)(=O)N2CCN(c3nc(C(C)(C)c4cccc(Cl)c4)no3)CC2)cc1", "note": "[Cmpd155, 1-{3-[1-(3-Chloro-phenyl)-1-methyl-ethyl]-[1,2,4]oxadiazol-5-yl}-4-(4-methylsulfanyl-benzenesulfonyl)-piperazine]", "EC50": 2}, {"smiles": "O=S(=O)(c1ccc(OC(F)F)cc1)N1CCN(c2nc(CC(F)(F)F)no2)CC1", "note": "[Cmpd167, 5-(4-((4-(Difluoromethoxy)phenyl)sulfonyl)piperazin-1-yl)-3-(2,2,2-trifluoroethyl)-1,2,4-oxadiazole]", "EC50": 10000}, {"smiles": "O=S(=O)(c1ccc(OC(F)F)cc1)N1CCN(c2nc(C(F)(F)c3ccc(F)cc3)no2)CC1", "note": "[Cmpd148, 1-{3-[Difluoro-(4-fluoro-phenyl)-methyl]-[1,2,4]oxadiazol-5-yl}-4-(4-difluoromethoxy-benzenesulfonyl)-piperazine]", "EC50": 34}, {"smiles": "CC[C@H](c1ccccc1)c1noc(N2CCN(S(=O)(=O)c3ccc(OC)cc3)CC2)n1", "note": "[Cmpd051, 1-(4-Methoxy-benzenesulfonyl)-4-[3-((R)-1-phenyl-propyl)-[1,2,4]oxadiazol-5-yl]-piperazine]", "EC50": 46}, {"smiles": "COc1ccc(S(=O)(=O)N2CCN(c3nc(COc4cccnc4)no3)CC2)cc1", "note": "[Cmpd204, 5-(4-((4-Methoxyphenyl)sulfonyl)piperazin-1-yl)-3-((pyridin-3-yloxy)methyl)-1,2,4-oxadiazole]", "EC50": 65}, {"smiles": "O=S(=O)(c1ccc(OC(F)F)cc1)N1CCN(c2nc(Cc3cccc(F)c3)no2)CC1", "note": "[Cmpd092, 1-(4-Difluoromethoxy-benzenesulfonyl)-4-[3-(3-fluoro-benzyl)-[1,2,4]oxadiazol-5-yl]-piperazine]", "EC50": 47}, {"smiles": "CC(C)(c1ccc(F)cc1)c1noc(N2CCN(S(=O)(=O)c3ccc(OC(F)F)cc3)CC2)n1", "note": "[Cmpd114, 1-(4-Difluoromethoxy-benzenesulfonyl)-4-{3-[1-(4-fluoro-phenyl)-1-methyl-ethyl]-[1,2,4]oxadiazol-5-yl}-piperazine]", "EC50": 17}, {"smiles": "CCOc1ccc(S(=O)(=O)N2CCN(c3nc(Cc4ccc(Cl)cc4)no3)CC2)cc1", "note": "[Cmpd053, 1-[3-(4-Chloro-benzyl)-[1,2,4]oxadiazol-5-yl]-4-(4-ethoxy-benzenesulfonyl)-piperazine]", "EC50": 31}, {"smiles": "COc1ccc(S(=O)(=O)N2CCN(c3nc(C(F)(F)c4ccc(Cl)cc4)no3)CC2)cc1", "note": "[Cmpd142, 1-{3-[(4-Chloro-phenyl)-difluoro-methyl]-[1,2,4]oxadiazol-5-yl}-4-(4-methoxy-benzenesulfonyl)-piperazine]", "EC50": 24}, {"smiles": "COc1ccc(S(=O)(=O)N2CCN(c3nc(CCC(F)(F)F)no3)CC2)cc1", "note": "[Cmpd171, 5-(4-((4-Methoxyphenyl)sulfonyl)piperazin-1-yl)-3-(3,3,3-trifluoropropyl)-1,2,4-oxadiazole]", "EC50": 248}, {"smiles": "COc1ccc(S(=O)(=O)N2CCN(c3nc(C(C)(C)c4ccccc4)no3)CC2)cc1", "note": "[Cmpd197, 1-(4-Methoxy-benzenesulfonyl)-4-[3-(1-methyl-1-phenyl-ethyl)-[1,2,4]oxadiazol-5-yl]-piperazine]", "EC50": 2}, {"smiles": "COc1ccc(S(=O)(=O)N2CCN(c3nc(COc4ccccc4)no3)CC2)cc1", "note": "[Cmpd202, 5-(4-((4-Methoxyphenyl)sulfonyl)piperazin-1-yl)-3-(phenoxymethyl)-1,2,4-oxadiazole]", "EC50": 11}, {"smiles": "CCOc1ccc(S(=O)(=O)N2CCN(c3nc(C(F)(F)c4ccc(Cl)cc4)no3)CC2)cc1", "note": "[Cmpd143, 1-{3-[(4-Chloro-phenyl)-difluoro-methyl]-[1,2,4]oxadiazol-5-yl}-4-(4-ethoxy-benzenesulfonyl)-piperazine]", "EC50": 25}, {"smiles": "CC(C)(c1ccccc1)c1noc(N2CCN(S(=O)(=O)c3ccc(OC(F)F)cc3)CC2)n1", "note": "[Cmpd196, 1-(4-Difluoromethoxy-benzenesulfonyl)-4-[3-(1-methyl-1-phenyl-ethyl)-[1,2,4]oxadiazol-5-yl]-piperazine]", "EC50": 8}, {"smiles": "O=S(=O)(c1ccc(OC(F)F)cc1)N1CCN(c2nc(C3C[C@@H]4CC[C@H]3C4)no2)CC1", "note": "(stereo partly drawn) [Cmpd192, 3-((1 S,4R)-bicyclo[2.2.1]heptan-2-yl)-5-(4-((4-(difluoromethoxy)phenyl)sulfonyl)piperazin-1-yl)-1,2,4-oxadiazole]", "EC50": 164}, {"smiles": "O=S(=O)(c1ccc2c(c1)CCO2)N1CCN(c2nc(Cc3cccc(F)c3)no2)CC1", "note": "[Cmpd095, 1-(2,3-Dihydro-benzofuran-5-sulfonyl)-4-[3-(3-fluoro-benzyl)-[1,2,4]oxadiazol-5-yl]-piperazine]", "EC50": 89}, {"smiles": "COc1ccc(S(=O)(=O)N2CCN(c3nc(C(C)(C)c4cccc(Cl)c4)no3)CC2)cc1", "note": "[Cmpd152, 1-{3-[1-(3-Chloro-phenyl)-1-methyl-ethyl]-[1,2,4]oxadiazol-5-yl}-4-(4-methoxy-benzenesulfonyl)-piperazine]", "EC50": 1}, {"smiles": "COc1ccc(S(=O)(=O)N2CCN(c3nc(C4C[C@@H]5CC[C@H]4C5)no3)CC2)cc1", "note": "(stereo partly drawn) [Cmpd190, 3-((1S,4R)-bicyclo[2.2.1]heptan-2-yl)-5-(4-((4-methoxyphenyl)sulfonyl)piperazin-1-yl)-1,2,4-oxadiazole]", "EC50": 215}, {"smiles": "O=c1[nH]c2cc(S(=O)(=O)N3CCN(c4nc(Cc5cccc(Cl)c5)no4)CC3)ccc2o1", "note": "[Cmpd077, 5-{4-[3-(3-Chloro-benzyl)-[1,2,4]oxadiazol-5-yl]-piperazine-1-sulfonyl}-3H-benzooxazol-2-one]", "EC50": 139}]}, {"system": "M17_3SYN cells", "experiment": "Paraquat-induced cytotoxicity (LDH) in α-synuclein over-expressing M17_3SYN neuroblastoma cells", "assay_type": "cell-based, human", "conditions": "toxicity inhibition (LDH) in M17_3SYN cells challenged with 6 mM paraquat, 2 days; read-out: SYN EC50", "description": "as §1, §2, §3, §4", "units": {"EC50": "nM"}, "values": [{"smiles": "CC(C)Oc1ccc(S(=O)(=O)N2CCN(c3nc(Cc4cccc(F)c4)no3)CC2)cc1", "note": "[Cmpd096, 3-(3-Fluorobenzyl)-5-(4-((4-isopropoxyphenyl)sulfonyl)piperazin-1-yl)-1,2,4-oxadiazole]", "EC50": 289}]}]}
